The values that follow come from patent publication US20180057530A1, “CYCLIC PEPTIDE COMPOUND, AND PREPARATION AND USE THEREOF” (Zhejiang Hisun Pharmaceutical Co., Ltd., priority 2015, published 2018).

Test [1] relates to tumor cells. Description: MTT tumor cell growth inhibition, summary over the cell line panel. The format is cell-based. Particulars: ten tumor cell lines of Table 2, MTT, 72 hours; read-out: IC50 of tumor cell proliferation inhibition, span over the tested cell lines. From the text:
The tetrazolium salt (MTT) reduction method was used to test the activity of the compounds of the present invention. Human breast cancer cells (MDA-MB-231) (CAS cell library; catalog number: TCHu227), human lung cancer cells (A549) (ATCC® Number: CRM-CCL-185™), human colon cancer cells (HCT-116) (CAS cell library; catalog number: TCHu99), acute monocytic leukemia cells (MV4-11) (ATCC® Number: CRL-9591™), tissue cell lymphoma cells (U-937) (CAS cell library; catalog number: TCHu159), human acute promyelocytic leukemia cells (HL-60) (ATCC® Number: CCL-240™), chronic myelogenous leukemia cells (of K562) (CAS cell library; catalog number: TCHu191), human hepatocellular carcinoma cells (BEL-7404) (CAS cell library; catalog number: TCHu64), human pancreatic cancer cells (BxPC3) (ATCC® Number: […])) and human prostate cancer cells (PC-3) (ATCC®Number: […]) were inoculated in 96-well plates, 90 μL/well, with 3000 to 8000 cells in respective well; in the first row of plate, 100 μL/well culture medium was added; the 96-well plate was pre-incubated in an incubator at 37° C., 5% CO2, and 100% relative humidity for 24 hours.
A compound was weighed and configured to a 10 mM/L stock solution, and the compound was diluted three-fold sequentially from the highest concentration of 2 millimoles (mM); 95 μl the corresponding cell medium was added to each well of a V-bottom dispensing plate; 5 μl of the compound on a 200× plate was transferred to a 10× dispensing plate according to the concentration; 5 μl of dimethylsulfoxide (DMSO) was evenly mixed in the corresponding 95 μl cell culture medium as a vehicle control. 10 μl of the compound-medium in each well of the 10× dispensing plate was added to a 96-well plate already plated with cells. […]
After the compound for cells was treated for 72 hours, 20 microliters of 5 mg/ml MTT was added to each well; all the steps need to be aseptic. […] The absorbance at 490 nm was read on a SpectraMax M2e instrument. The compound activity (relative IC50) was calculated using GraphPad Prism software.

In test [2] the test system is human lung cancer cell line NCI-H460. Description: In vivo pharmacodynamic study of compound A, NCI-H460 nude mice transplanted tumor model. The arrangement: species or system BALB/C nude mice. Particulars: 2.4 mg/kg, q4d, 4x. The method, then: Female BALB/C nude mice 6 weeks to 8 weeks old and weighing about 19 g to 29 g were taken (Supplier: Beijing Vital River Laboratory Animal Technology Co., Ltd.) and raised for a week. A human cancer nude mice […] transplanted tumor model was established: Human breast cancer cell line MDA-MB-231 (ATCC® Number: HTB-26™) and human lung cancer cell line NCI-H460 (ATCC® Number: HTB-177™) were incubated. The monolayer tumor cells were digested and detached; then, they were collected and resuspended in a serum-free culture medium, and then were adjusted to a concentration of 2×10^6/0.2 mL. They were put into an iced box and brought to an animal house. A syringe with a No. 6 needle was used to directly take a 0.2 mL cell suspension and transplanted it into the rear subcutaneous scapular regions of the left axillaries of the nude mice at 2×10^6/0.2 mL per mouse. Tumor volumes were measured once every 2 days to 3 days. After two weeks, tumor-bearing nude mice with vigorous tumor growth and no ulceration were selected, the tumors were removed from them under sterile conditions. The tumor tissues were cut to about 2 mm to 3 mm in diameter and inoculated in the rear subcutaneous scapular regions of the left axillaries of the nude mice. After passage for three generations, when the tumor volume grew to 100 mm^3, nude mice with tumor masses that were too large or too small were removed and randomly grouped for administration.
The mice were randomly divided into five groups, including the negative control group (vehicle), positive control group (Romidepsin, 2.4 mg/kg), treatment group with the high, medium, and low doses of compound A (respectively 7.2 mg/kg, 4.8 mg/kg, 2.4 mg/kg, wherein the high dose was lower than the maximum tolerated dose, MTD); there were six nude mice in each group; intravenous administration was given every 4 days; 4 doses were given. During the period, the weights and tumor volumes of the animals were measured every 2 days, and the number of animal deaths was recorded. 24 hours after the last administration, the animals were sacrificed. The tumor volumes, tumor weights, and body weights of nude mice were measured; tumor volume growth curves, nude mice weight growth curves and tumor inhibition rates, mortality of the animals were plotted; the relative tumor proliferation rate T/C (%) was calculated; according to the formula T/C (%)=TRTV/CRTV*100%. (TRTV: treatment group RTV; CRTV: negative control group RTV, relative tumor volume RTV=Vt/V0, wherein V0 is the tumor volume at the time of administration by group; Vt is the post-administration tumor volume).

Consider `C/C=C1\NC(=O)[C@H]2CSSCC/C=C/[C@H](CC(=O)N[C@H](C(C)C)C(=O)N2)OC(=O)[C@H](C(C)C)NC1=O` [Romidepsin, reference compound], for which, in test [1], the IC50 lay within 3.6 to 8.7 nM. Moreover, in test [2], the “Relative tumor proliferation rates T/C (%)” value is recorded as 42.2%(2.4 mg/kg, q4d, 4x).
